From ChEMBL document CHEMBL1136937, “Discovery of a potent class I selective ketone histone deacetylase inhibitor with antitumor activity in vivo and optimized pharmacokinetic properties” (J Med Chem, 2009) come the findings set out here.

The subject of data set [1] is HeLa. Put plainly: Antiproliferative activity against human P53-deficient HeLa cells after 72 hrs by celltiter-blue cell viability assay. It counts as functional. A general note: The colour change of resazurin is a common sign of viable cells or microbes.
Data set [2] is described as follows: Metabolic stability in rat liver microsomes assessed as intrinsic clearance at 1 uM after 90 mins. The format is ADME, Microsome. A general note: Liver microsomes are a subcellular fraction often used to study metabolism.
Data set [3] can be described thus: Metabolic stability in human liver microsomes assessed as intrinsic clearance at 1 uM after 90 mins. It counts as ADME, Microsome. The settings on record: liver microsomes.
A short description of data set [4]: Clearance in Sprague-Dawley rat plasma at 3 mg/kg, iv and 3 mg/kg, po. The format is ADME, organism-based.
In data set [5] the test system is MCF7. In words: Antiproliferative activity against human MCF7 cells after 72 hrs by celltiter-blue cell viability assay. It counts as functional. The settings on record: Homo sapiens, MCF7, 72 h.
Data set [6] concerns U-937. In words: Antiproliferative activity against human U937 cells after 72 hrs by celltiter-blue cell viability assay. The format is functional. The settings on record: U-937, 72 h.
A short description of data set [7]: Volume of distribution at steady state in Sprague-Dawley rat at 3 mg/kg, iv and 3 mg/kg, po. The format is ADME, organism-based. The settings on record: in vivo, read-out: Vdss.
Data set [8] can be described thus: Clearance in Beagle dog at 1 mg/kg, iv and 2 mg/kg, po. The format is ADME, organism-based, Canis lupus familiaris. The settings on record: in vivo.
Data set [9] in a line: Volume of distribution at steady state in Beagle dog at 1 mg/kg, iv and 2 mg/kg, po. It counts as ADME, organism-based, Canis lupus familiaris. The settings on record: in vivo, read-out: Vdss.
Data set [10] can be described thus: Oral bioavailability in Beagle dog at 2 mg/kg. The format is ADME, organism-based, Canis lupus familiaris. The settings on record: in vivo.
Data set [11] is described as follows: Toxicity in ip dosed BALB/c nu/nu mouse assessed as maximum tolerated dose. It counts as organism-based. The settings on record: in vivo.
Data set [12] relates to HCT-116. Put plainly: Antitumor activity against human HCT116 cells xenografted BALB/c nu/nu mouse assessed as reduction in tumor growth at 10 mg/kg, ip administered once daily for 5 days per week. The format is functional, organism-based. On the set-up: dose 10 mg/kg.
For data set [13], the system named is Mus musculus. In words: Toxicity in BALB/c nu/nu mouse assessed as adverse effect at 10 mg/kg, ip administered once daily for 5 days per week. It counts as organism-based. Set-up: dose 10 mg/kg, route intraperitoneal. The settings on record: in vivo, 120 h.
The target in data set [14] is Cytochrome P450 3A4 (Homo sapiens, UniProt P08684). Put plainly: Induction of CYP3A4. It counts as ADME.
Sequence of Cytochrome P450 3A4 (P08684 whole entry): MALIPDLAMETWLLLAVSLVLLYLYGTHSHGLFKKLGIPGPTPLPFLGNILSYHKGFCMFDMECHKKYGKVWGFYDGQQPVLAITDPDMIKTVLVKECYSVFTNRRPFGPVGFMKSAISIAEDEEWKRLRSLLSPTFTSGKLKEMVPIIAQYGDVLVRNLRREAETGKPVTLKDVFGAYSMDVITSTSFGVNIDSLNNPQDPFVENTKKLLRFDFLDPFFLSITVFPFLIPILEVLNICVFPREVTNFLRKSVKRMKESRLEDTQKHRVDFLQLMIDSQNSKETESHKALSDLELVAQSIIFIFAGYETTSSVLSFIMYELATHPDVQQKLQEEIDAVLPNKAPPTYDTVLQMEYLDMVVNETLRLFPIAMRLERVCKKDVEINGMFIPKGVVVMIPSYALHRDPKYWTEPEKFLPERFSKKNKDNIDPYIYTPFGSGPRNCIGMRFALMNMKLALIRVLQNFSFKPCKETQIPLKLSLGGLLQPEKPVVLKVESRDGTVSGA
The target of data set [15] is Cytochrome P450 2C9 (Homo sapiens, UniProt P11712). Put plainly: Inhibition of CYP2C9. It counts as ADME.
Sequence of Cytochrome P450 2C9 (P11712 whole entry): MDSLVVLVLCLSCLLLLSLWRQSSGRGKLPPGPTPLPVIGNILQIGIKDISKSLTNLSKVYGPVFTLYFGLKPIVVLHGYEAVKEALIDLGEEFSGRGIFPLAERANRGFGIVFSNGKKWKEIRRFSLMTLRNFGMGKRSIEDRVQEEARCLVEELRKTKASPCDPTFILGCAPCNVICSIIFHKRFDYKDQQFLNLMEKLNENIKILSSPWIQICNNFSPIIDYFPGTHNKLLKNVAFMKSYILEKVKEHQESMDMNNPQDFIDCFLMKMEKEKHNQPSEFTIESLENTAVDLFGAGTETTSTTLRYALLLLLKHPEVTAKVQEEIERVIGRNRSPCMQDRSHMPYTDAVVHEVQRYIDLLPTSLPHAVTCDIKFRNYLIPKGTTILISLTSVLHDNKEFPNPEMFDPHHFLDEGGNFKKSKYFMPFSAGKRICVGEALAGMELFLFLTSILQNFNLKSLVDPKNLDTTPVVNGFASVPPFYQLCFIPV

pIC50: −log10 of the molar value. The source made the active and inactive calls. The calls are words filed in the database; no cut-off is given here.

Consider `CCC(=O)CCCCC[C@H](NC(=O)C1CN(C)C1)c1ncc(-c2cc3ccccc3nc2OC)[nH]1`, for which the CC50 (usually the concentration that lowers cell viability or growth by half) in data set [1] stood at 135 nM; in data set [5] it was 750 nM; in data set [6] it was 240 nM. Also, the figures for the microsomal CLint at 1 µM in data set [2] and in data set [3] were 29 µL/min/mg and 31 µL/min/mg, respectively. The clearance in [4] stood at 19 mL/min/kg; in data set [8], 4 mL/min/kg. The Vd was 7.9 L/kg in [7] and 3.5 L/kg in data set [9]. For the same molecule, the bioavailability (usually the share of a dose that reaches the circulation, judged against a reference dose that is usually intravenous) in data set [10] was 31%. The maximum tolerated dose (MTD) (as a rule, the largest dose that counted as tolerated) in data set [11] worked out at 10 mg/kg. Also, in [12], the outcome was Active. The Activity result in data set [13] is “Non-toxic”; in data set [14] it was “Not Active”. Moreover, the negative-log IC50 (pIC50) (usually the IC50 on a negative log10 scale, so that one unit is a factor of ten) in data set [15] was 5.26.
